{"source": "paper PMC8224038", "about": "“Anti-Leukemic Properties of Aplysinopsin Derivative EE-84 Alone and Combined to BH3 Mimetic A-1210477” (Marine Drugs, 2021)", "key": {"RPMI 1788": {"tested_on": "RPMI 1788", "assay": "Trypan blue exclusion test, viability (IC50) in noncancerous cells", "format": "cell-based, human", "details": "for IC50: Homo sapiens, read-out: IC50 (50% cell death)", "protocol": "Cell proliferation and viability were assessed by the trypan blue exclusion method (Lonza), and viable cells were counted using a hematocytometer (Marienfeld, Lauda-Königshofen, Germany). Differential toxicity was calculated by comparing the viability of RPMI 1788 cells to the viability of cancer cells (normal/cancer cells). The difference in viability was expressed in terms of fold change."}, "K562 cells [1]": {"tested_on": "K562 cells", "assay": "Annexin V APC/PI staining quantified by FACS", "format": "cell-based, human", "source_text": "(§1) The percentage of apoptotic cells was quantified as the fraction of cells showing fragmented nuclei, as assessed by fluorescence microscopy (Nikon, Tokyo, Japan) after staining with Hoechst 33342 (Sigma-Aldrich) and propidium iodide (Sigma-Aldrich). In addition, apoptosis was confirmed by Annexin V APC (Biolegend, 640919)/propidium iodide (BD Biosciences, 556547) staining and fluorescence-activated cell sorter (FACS) analysis according to the manufacturer protocol (BD Biosciences, 556547)."}, "K562 cells [2]": {"tested_on": "K562 cells", "assay": "Hoechst/PI staining by fluorescent microscopy", "format": "cell-based, human", "details": "K562, 50 μM, 72 h", "source_text": "as §1"}, "K562": {"tested_on": "K562", "assay": "Seahorse XFp Cell Mito Stress test (OCR)", "format": "cell-based, human", "details": "K562, EE-84 30 µM, 72 h, vs control", "protocol": "The oxygen consumption rate (OCR) was measured using a Seahorse XFp Cell Mito Stress Assay (#103010-100, Agilent Technologies, Seoul, Korea) ran on a Seahorse XFp analyzer (Agilent Technologies, Seoul, Korea) according to the manufacturer’s instructions. […] Before measurements, plates were equilibrated in a CO2-free incubator at 37 °C for 1 h. The analysis was performed using 1.5 µM oligomycin, 0.5 µM carbonyl cyanide-4-(trifluoromethoxy)phenylhydrazone (FCCP), and 1 µM rotenone/antimycin A as indicated. Data were analyzed using the Seahorse XF Cell Mito Stress Test report generator software (Agilent). The extracellular acidification rate (ECAR) was measured in response to the sequential injection of 10 mM glucose, 2 µM oligomycin (H+-ATP-synthase inhibitor), and 50 mM 2-deoxy-d-glucose (2DG) (hexokinase inhibitor) to detect non-glycolytic acidification, glycolysis, maximal glycolytic capacity, and glycolytic reserve using a Seahorse XFp analyzer with a Glycolysis Stress Test kit (Agilent, Santa Clara, CA, USA)."}, "zebrafish embryos": {"tested_on": "zebrafish embryos", "assay": "Zebrafish toxicity", "details": "24 h exposure", "procedure": "For toxicity assays, embryos were treated with 0.003% phenylthiourea (PTU) 14 h before the assay to remove pigmentation. Then, 2 h before the assay, the embryo’s shell was eliminated and then treated for up to 24 h with aplysinopsin compounds at indicated concentrations in 24-well plates. Viability and abnormal development were assessed after 24 h of treatment under light microscopy (Carl Zeiss Stereomicroscope DV4, Seoul, Korea). Pictures were taken by fixing embryos onto a glass slide with 3% methylcellulose (Sigma-Aldrich)."}, "[3]": {"details": "K562, 24 h, EE-84 30 μM, with z-VAD-fmk (50 μM)"}}, "note": "Read-outs that look alike come from different tables or passages of the source.", "data": [{"smiles": "COc1ccc2c(c1)c(C(=O)C(=O)Nc1sc3c(c1C(C)=O)CC(C)CC3)cn2Cc1ccccc1", "note": "(stereo not shown) [EE-84, N-(3-Acetyl-4,5,6,7-Tetrahydro-5-Methylbenzo[b]Thiophen-2-yl)-2-(1-Benzyl-5-Methoxy-1H-Indol-3-yl)-2-Oxoacetamide]", "values": [{"measurement": "IC50", "setting": "RPMI 1788; RPMI 1788, 24 h", "value": "> 50", "unit": "µM"}, {"measurement": "IC50", "setting": "RPMI 1788; RPMI 1788, 48 h", "value": "> 50", "unit": "µM"}, {"measurement": "IC50", "setting": "RPMI 1788; RPMI 1788, 72 h", "value": "> 50", "unit": "µM"}, {"measurement": "differential toxicity RPMI-1788/K562 cells", "setting": "RPMI 1788; at 40 and 50 µM, viability normal/cancer cells", "value": "significant differential toxicity"}, {"measurement": "viability of RPMI 1788 cells", "setting": "RPMI 1788; up to 50 µM, Figure S4B", "value": "did not significantly affect"}, {"measurement": "AnnV+/PI+ (%)", "setting": "K562 cells [1]; K562, 24 h, EE-84 30 μM", "value": "2.98 ± 0.23", "unit": "%"}, {"measurement": "AnnV+/PI− (%)", "setting": "K562 cells [1]; K562, 24 h, EE-84 30 μM", "value": "6.00 ± 1.43", "unit": "%"}, {"measurement": "Combined cell death (%)", "setting": "K562 cells [1]; K562, 24 h, EE-84 30 μM", "value": "8.98 ± 2.14", "unit": "%"}, {"measurement": "AnnV+/PI+ (%)", "setting": "K562 cells [1]; [3]", "value": "3.13 ± 0.21", "unit": "%"}, {"measurement": "AnnV+/PI− (%)", "setting": "K562 cells [1]; [3]", "value": "5.33 ± 1.35", "unit": "%"}, {"measurement": "Combined cell death (%)", "setting": "K562 cells [1]; [3]", "value": "8.46 ± 1.55", "unit": "%"}, {"measurement": "AnnV+/PI+ (%)", "setting": "K562 cells [1]; K562, EE-84 10 μM (Figure 3B)", "value": "2.50 ± 0.62", "unit": "%"}, {"measurement": "AnnV+/PI− (%)", "setting": "K562 cells [1]; K562, EE-84 10 μM (Figure 3B)", "value": "7.05 ± 1.46", "unit": "%"}, {"measurement": "Combined cell death (%)", "setting": "K562 cells [1]; K562, EE-84 10 μM (Figure 3B)", "value": "9.55 ± 3.22", "unit": "%"}, {"measurement": "AnnV+/PI+ (%)", "setting": "K562 cells [1]; K562, EE-84 20 μM (Figure 3B)", "value": "4.40 ± 0.94", "unit": "%"}, {"measurement": "AnnV+/PI− (%)", "setting": "K562 cells [1]; K562, EE-84 20 μM (Figure 3B)", "value": "5.60 ± 1.98", "unit": "%"}, {"measurement": "Combined cell death (%)", "setting": "K562 cells [1]; K562, EE-84 20 μM (Figure 3B)", "value": "10.00 ± 0.85", "unit": "%"}, {"measurement": "AnnV+/PI+ (%)", "setting": "K562 cells [1]; K562, EE-84 30 μM (Figure 3B)", "value": "7.51 ± 2.70", "unit": "%"}, {"measurement": "AnnV+/PI− (%)", "setting": "K562 cells [1]; K562, EE-84 30 μM (Figure 3B)", "value": "6.65 ± 2.29", "unit": "%"}, {"measurement": "Combined cell death (%)", "setting": "K562 cells [1]; K562, EE-84 30 μM (Figure 3B)", "value": "14.16 ± 0.61", "unit": "%"}, {"measurement": "AnnV+/PI+ (%)", "setting": "K562 cells [1]; K562, EE-84 40 μM (Figure 3B)", "value": "8.97 ± 1.03", "unit": "%"}, {"measurement": "AnnV+/PI− (%)", "setting": "K562 cells [1]; K562, EE-84 40 μM (Figure 3B)", "value": "7.71 ± 2.10", "unit": "%"}, {"measurement": "Combined cell death (%)", "setting": "K562 cells [1]; K562, EE-84 40 μM (Figure 3B)", "value": "16.68 ± 0.89", "unit": "%"}, {"measurement": "AnnV+/PI+ (%)", "setting": "K562 cells [1]; K562, EE-84 50 μM (Figure 3B)", "value": "8.25 ± 1.95", "unit": "%"}, {"measurement": "AnnV+/PI− (%)", "setting": "K562 cells [1]; K562, EE-84 50 μM (Figure 3B)", "value": "8.22 ± 3.12", "unit": "%"}, {"measurement": "propidium iodide (PI)-positive cells without nuclear fragmentation", "setting": "K562 cells [2]", "value": "11.0 ± 4.23", "unit": "%"}, {"measurement": "oxygen consumption rate (OCR)", "setting": "K562", "value": "significantly decreased"}, {"measurement": "heart rate of zebrafish", "setting": "zebrafish embryos", "value": "moderate decrease"}, {"measurement": "growth (relative body length) of zebrafish", "setting": "zebrafish embryos; concentrations up to 100 µM", "value": "did not affect"}, {"measurement": "survival rate of zebrafish", "setting": "zebrafish embryos; concentrations up to 100 µM", "value": "did not affect"}, {"measurement": "morphological changes of zebrafish", "setting": "zebrafish embryos; embryos 24 hpf, different concentrations", "value": "No significant morphological changes"}]}]}
